# Laboratory results from patent publication US9737075B2, “Synergistic benzoxaborole-containing anti-fungicidal composition” (The Penn State Research Foundation, priority 2015, dated 2017).
# Where two headings read alike, the source gives them in different places.
# Columns and labels:
# Type in all cases: cell-based
# Aspergillus niger = assay: Broth microdilution MIC of individual antifungals; settings: for MIC: read-out: Independent MIC
# Sclerotinia homoeocarpa = assay: Broth microdilution MIC of individual antifungals; settings: Sclerotinia homoeocarpa, individual antifungal, 25% PDB, about 25° C., 72 hours, range over N independent triplicate studies; for MIC: Clarireedia homoeocarpa, read-out: Independent MIC
# Botrytis cinerea 10-1728 = assay: Broth microdilution MIC of individual antifungals; settings: Botrytis cinerea 10-1728, individual antifungal, 25% PDB, about 25° C., 72 hours, range over N independent triplicate studies; for MIC: 101728, read-out: Independent MIC
# Candida albicans = assay: Broth microdilution MIC of individual antifungals; settings: for MIC: read-out: Independent MIC
# Fusarium graminearum = assay: microbe, parasite or virus in culture; settings: for MIC: 72 h, read-out: Independent MIC
# Mucor sp. = assay: Broth microdilution MIC of individual antifungals; settings: individual antifungal, 25% PDB, about 25° C., 72 hours, range over N independent triplicate studies
# Magnaporthe grisea = assay: microbe, parasite or virus in culture; settings: for MIC: Pyricularia oryzae, 72 h, read-out: Independent MIC
# Rhizoctonia solani = assay: Broth microdilution MIC of individual antifungals; settings: individual antifungal, 25% PDB, about 25° C., 72 hours, range over N independent triplicate studies; for MIC: read-out: Independent MIC
# [1] = tested on: Colletotrichum orbiculare; assay: Broth microdilution MIC of individual antifungals; settings: for MIC: read-out: Independent MIC
# [2] = tested on: Mycosphaerella zeae-maydis; assay: Broth microdilution MIC of individual antifungals; settings: individual antifungal, 25% PDB, about 25° C., 72 hours, range over N independent triplicate studies; for MIC: Didymella maydis
# Alternaria solani = assay: Broth microdilution MIC of individual antifungals; settings: individual antifungal, 25% PDB, about 25° C., 72 hours, range over N independent triplicate studies; for MIC: read-out: Independent MIC
# Aureobasidium pullulans = assay: Broth microdilution MIC of individual antifungals; settings: individual antifungal, 25% PDB, about 25° C., 72 hours, range over N independent triplicate studies; for MIC: read-out: Independent MIC
# Aspergillus flavus = assay: Broth microdilution MIC of individual antifungals; settings: individual antifungal, 25% PDB, about 25° C., 72 hours, range over N independent triplicate studies; for MIC: read-out: Independent MIC
# Aspergillus fumigatus = assay: Broth microdilution MIC of individual antifungals; settings: individual antifungal, 25% PDB, about 25° C., 72 hours, range over N independent triplicate studies; for MIC: read-out: Independent MIC
# Botrytis cinerea B17 = assay: Broth microdilution MIC of individual antifungals; settings: Botrytis cinerea B17, individual antifungal, 25% PDB, about 25° C., 72 hours, range over N independent triplicate studies; for MIC: read-out: Independent MIC
# Fusarium verticillioides = assay: Broth microdilution MIC of individual antifungals; settings: individual antifungal, 25% PDB, about 25° C., 72 hours, range over N independent triplicate studies; for MIC: read-out: Independent MIC
# [3] = tested on: Fusarium solani f. sp. pisi (MP VI); assay: Broth microdilution MIC of individual antifungals; settings: Fusarium solani f. sp. pisi (MP VI), individual antifungal, 25% PDB, about 25° C., 72 hours, range over N independent triplicate studies
# Fusarium oxysporum ST33 = assay: Broth microdilution MIC of individual antifungals; settings: individual antifungal, 25% PDB, about 25° C., 72 hours, range over N independent triplicate studies
# [4] = tested on: Fusarium oxysporum f. sp. lycopersici; assay: Broth microdilution MIC of individual antifungals; settings: individual antifungal, 25% PDB, about 25° C., 72 hours, range over N independent triplicate studies
# Stachybotrys chartarum = assay: Broth microdilution MIC of individual antifungals; settings: individual antifungal, 25% PDB, about 25° C., 72 hours, range over N independent triplicate studies; for MIC: read-out: Independent MIC
# Rhizopus sp. = assay: Broth microdilution MIC of individual antifungals; settings: Rhizopus sp., individual antifungal, 25% PDB, about 25° C., 72 hours, range over N independent triplicate studies; for MIC: Rhizopus, 72 h, read-out: Independent MIC
# Pythium aphanodermatum = assay: Broth microdilution MIC of individual antifungals; settings: individual antifungal, 25% PDB, about 25° C., 72 hours, range over N independent triplicate studies
# Phytophthora pini = assay: Broth microdilution MIC of individual antifungals; settings: individual antifungal, 25% PDB, about 25° C., 72 hours, range over N independent triplicate studies
# Penicillium chrysogenum = assay: Broth microdilution MIC of individual antifungals; settings: individual antifungal, 25% PDB, about 25° C., 72 hours, range over N independent triplicate studies; for MIC: read-out: Independent MIC
# [5] = individual antifungal, 25% PDB, about 25° C., 72 hours, range over N independent triplicate studies
compound,measurement,setting,value
"CC(C)OP(=O)(OC(C)C)SCc1ccccc1 [Iprobenfos, iprobenfos]",MIC,Aspergillus niger; 72 h,200 to 300 µg/mL
same,MIC,Sclerotinia homoeocarpa,12.5 to 25 µg/mL
same,MIC,Botrytis cinerea 10-1728,100 to 200 µg/mL
same,MIC,Candida albicans; 72 h,200 to 400 µg/mL
same,MIC,Fusarium graminearum; Fusarium graminearum,200 to 400 µg/mL
same,MIC,Mucor sp.,100 to 200 µg/mL
same,MIC,Magnaporthe grisea,25 µg/mL
same,MIC,Rhizoctonia solani,200 to 400 µg/mL
same,MIC,[1]; 72 h,12.5 to 25 µg/mL
"Cc1cc(C)nc(Nc2ccccc2)n1 [Pyrimethanil, pyrimethanil]",MIC,[2],6.25 to 12.5 µg/mL
same,MIC,Alternaria solani,100 to 200 µg/mL
same,MIC,Aureobasidium pullulans,25 to 50 µg/mL
same,MIC,Aspergillus flavus,25 µg/mL
same,MIC,Aspergillus fumigatus,0.78 to 1 µg/mL
same,MIC,Aspergillus niger; [5],100 to 200 µg/mL
same,MIC,Sclerotinia homoeocarpa,50 to 100 µg/mL
same,MIC,Botrytis cinerea 10-1728,50 to 100 µg/mL
same,MIC,Botrytis cinerea B17,50 to 100 µg/mL
same,MIC,Candida albicans; [5],200 µg/mL
same,MIC,Fusarium graminearum; Fusarium graminearum,200 µg/mL
same,MIC,Fusarium verticillioides,200 µg/mL
same,MIC,[3]; read-out: Independent MIC,200 to 400 µg/mL
same,MIC,Fusarium oxysporum ST33,200 µg/mL
same,MIC,[4],200 µg/mL
same,MIC,Stachybotrys chartarum,50 to 90 µg/mL
same,MIC,Rhizopus sp.,200 to 400 µg/mL
same,MIC,Pythium aphanodermatum,100 to 200 µg/mL
same,MIC,Mucor sp.,200 µg/mL
same,MIC,Magnaporthe grisea,100 to 200 µg/mL
same,MIC,Phytophthora pini,100 µg/mL
"CC(C)(C)C(O)(CCc1ccc(Cl)cc1)Cn1cncn1 (centres unmarked) [Tebuconazole, tebuconazole]",MIC,[2],50 to 100 µg/mL
same,MIC,Alternaria solani,25 to 50 µg/mL
same,MIC,Aspergillus flavus,3 to 3.12 µg/mL
same,MIC,Aspergillus fumigatus,0.78 to 1.56 µg/mL
same,MIC,Aspergillus niger; [5],3.12 µg/mL
same,MIC,Sclerotinia homoeocarpa,0.39 to 0.78 µg/mL
same,MIC,Botrytis cinerea 10-1728,1 to 1.56 µg/mL
same,MIC,Candida albicans; [5],100 to 200 µg/mL
same,MIC,Fusarium verticillioides,1.56 to 3 µg/mL
same,MIC,Rhizopus sp.,0.78 µg/mL
same,MIC,Mucor sp.,12.5 to 15 µg/mL
same,MIC,Rhizoctonia solani,3.12 to 6.25 µg/mL
same,MIC,[1]; [5],1.56 to 3.13 µg/mL
c1ccc2[nH]c(-c3cscn3)nc2c1 [Thiabendazole],MIC,[2],12.5 to 25 µg/mL
same,MIC,Aureobasidium pullulans,0.2 to 0.39 µg/mL
same,MIC,Aspergillus flavus,12.5 to 40 µg/mL
same,MIC,Aspergillus fumigatus,12.5 to 50 µg/mL
same,MIC,Aspergillus niger; [5],12.5 to 50 µg/mL
same,MIC,Sclerotinia homoeocarpa,20 to 25 µg/mL
same,MIC,Botrytis cinerea 10-1728,200 to 400 µg/mL
same,MIC,Botrytis cinerea B17,50 µg/mL
same,MIC,Fusarium graminearum; Fusarium graminearum,1.5 to 3.12 µg/mL
same,MIC,Fusarium verticillioides,3 to 6.25 µg/mL
same,MIC,Fusarium oxysporum ST33,25 to 80 µg/mL
same,MIC,[4],200 to 400 µg/mL
same,MIC,Stachybotrys chartarum,25 to 30 µg/mL
same,MIC,Pythium aphanodermatum,200 to 400 µg/mL
same,MIC,Magnaporthe grisea,1.56 to 3.13 µg/mL
same,MIC,Phytophthora pini,100 µg/mL
same,MIC,Penicillium chrysogenum,0.375 to 0.39 µg/mL
"COC(=O)NC(=S)Nc1ccccc1NC(=S)NC(=O)OC [Thiophanate-Methyl, thiophanate-methyl]",MIC,[2],25 to 50 µg/mL
same,MIC,Aureobasidium pullulans,0.1 to 0.39 µg/mL
same,MIC,Aspergillus fumigatus,50 to 100 µg/mL
same,MIC,Aspergillus niger; [5],25 µg/mL
same,MIC,Sclerotinia homoeocarpa,0.5 to 1 µg/mL
same,MIC,Botrytis cinerea 10-1728,200 to 400 µg/mL
same,MIC,Fusarium graminearum; Fusarium graminearum,100 to 400 µg/mL
same,MIC,Pythium aphanodermatum,400 µg/mL
same,MIC,Mucor sp.,200 to 400 µg/mL
same,MIC,Magnaporthe grisea,25 to 50 µg/mL
same,MIC,Phytophthora pini,25 µg/mL
same,MIC,Penicillium chrysogenum,12.5 µg/mL
mancozeb,Independent MIC,[2],(3.125-8) ^ μg/mL
same,Independent MIC,Alternaria solani,(10-12.5) μg/mL
same,Independent MIC,Aureobasidium pullulans,(6.25-12.5) μg/mL
same,Independent MIC,Aspergillus flavus,(6.25-25)^ μg/mL
same,Independent MIC,Aspergillus fumigatus,100 µg/mL
same,Independent MIC,Aspergillus niger; [5],(25-50) μg/mL
same,Independent MIC,Sclerotinia homoeocarpa,(8-20) μg/mL
same,Independent MIC,Botrytis cinerea 10-1728,3.125 µg/mL
same,Independent MIC,Botrytis cinerea B17,(32-64) μg/mL
same,Independent MIC,Candida albicans; [5],50 µg/mL
same,Independent MIC,"Fusarium graminearum; Fusarium graminearum, individual antifungal, 25% PDB, about 25° C., 72 hours, range over N independent triplicate studies",12.5 µg/mL
same,Independent MIC,Fusarium verticillioides,(4-8) μg/mL
same,Independent MIC,[3],100 µg/mL
same,Independent MIC,Fusarium oxysporum ST33,(32-80) μg/mL
same,Independent MIC,[4],(6-12.5) μg/mL
same,Independent MIC,Stachybotrys chartarum,(3.125-6.25) μg/mL
same,Independent MIC,Rhizopus sp.,(25-80) μg/mL
same,Independent MIC,Pythium aphanodermatum,(28-50) μg/mL
same,Independent MIC,Mucor sp.,(50-100) μg/mL
same,Independent MIC,"Magnaporthe grisea; Magnaporthe grisea, individual antifungal, 25% PDB, about 25° C., 72 hours, range over N independent triplicate studies",6.25 µg/mL
same,Independent MIC,Phytophthora pini,0.39 µg/mL
same,Independent MIC,Penicillium chrysogenum,(6.25-12.5) μg/mL
same,Independent MIC,[1]; [5],(6.25-12.5) μg/mL
maneb,Independent MIC,[2],25 µg/mL
same,Independent MIC,Alternaria solani,(25-50) μg/mL
same,Independent MIC,Aspergillus flavus,(12.5-25)^ μg/mL
same,Independent MIC,Aspergillus fumigatus,3.125 µg/mL
same,Independent MIC,Aspergillus niger; [5],(50-100) μg/mL
same,Independent MIC,Sclerotinia homoeocarpa,1.56 µg/mL
same,Independent MIC,Botrytis cinerea 10-1728,(12.5-40)^ μg/mL
same,Independent MIC,Candida albicans; [5],1.56 µg/mL
same,Independent MIC,Fusarium graminearum,12.5 µg/mL
same,Independent MIC,Fusarium verticillioides,6.25 µg/mL
same,Independent MIC,[3],25 µg/mL
same,Independent MIC,Rhizopus sp.,(50-100) μg/mL
same,Independent MIC,Mucor sp.,(25-50) μg/mL
same,Independent MIC,Magnaporthe grisea,1.56 µg/mL
same,Independent MIC,Phytophthora pini,3.125 µg/mL
same,Independent MIC,Rhizoctonia solani,(50-100) μg/mL
same,Independent MIC,Penicillium chrysogenum,25 µg/mL
same,Independent MIC,[1]; [5],(3.13-6.25) μg/mL
